Biological target: T1, TRPC4 (Homo sapiens, UniProt Q9UBN4)
T1 construct: host or cells: Flp-In T-REx-293 (called HEK293T with Dox-inducible TRPC4)
T1 sequence (Q9UBN4 1-977): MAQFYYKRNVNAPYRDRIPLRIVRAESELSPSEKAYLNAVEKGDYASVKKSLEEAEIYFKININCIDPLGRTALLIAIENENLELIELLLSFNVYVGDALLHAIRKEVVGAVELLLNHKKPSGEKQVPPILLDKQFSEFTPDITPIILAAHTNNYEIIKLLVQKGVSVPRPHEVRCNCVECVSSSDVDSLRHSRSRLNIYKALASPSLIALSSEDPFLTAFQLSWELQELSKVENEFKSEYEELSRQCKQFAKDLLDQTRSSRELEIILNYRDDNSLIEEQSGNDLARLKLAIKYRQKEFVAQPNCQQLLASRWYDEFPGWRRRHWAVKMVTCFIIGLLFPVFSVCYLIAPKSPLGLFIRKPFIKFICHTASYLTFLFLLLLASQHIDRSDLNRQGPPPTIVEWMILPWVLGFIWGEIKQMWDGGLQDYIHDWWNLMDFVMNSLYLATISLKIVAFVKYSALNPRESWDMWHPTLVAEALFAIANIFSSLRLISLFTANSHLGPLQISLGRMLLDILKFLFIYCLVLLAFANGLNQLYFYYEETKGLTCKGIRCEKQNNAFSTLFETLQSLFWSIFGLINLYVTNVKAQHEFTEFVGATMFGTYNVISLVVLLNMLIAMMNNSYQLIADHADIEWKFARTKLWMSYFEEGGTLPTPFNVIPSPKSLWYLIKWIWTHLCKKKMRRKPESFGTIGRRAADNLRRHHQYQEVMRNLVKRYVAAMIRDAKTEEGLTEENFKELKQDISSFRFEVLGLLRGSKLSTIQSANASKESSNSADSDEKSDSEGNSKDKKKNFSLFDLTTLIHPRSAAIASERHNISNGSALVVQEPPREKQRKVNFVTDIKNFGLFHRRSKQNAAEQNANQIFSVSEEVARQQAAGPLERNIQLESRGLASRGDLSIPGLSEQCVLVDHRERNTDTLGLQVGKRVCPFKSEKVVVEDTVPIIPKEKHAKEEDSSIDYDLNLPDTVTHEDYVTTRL
Assay: Electrophysiology (QPatch-HT automated patch clamp, voltage ramp)
Format: cell-based
Details: TRPC4 expressing HEK293T cells
Method: TRPC4 currents were recorded from HEK293T cells with Dox-inducible TRPC4 on the QPatch-HT automated patch clamp system at room temperature (21–24°C) (Biolin Scientific, Stockholm, Sweden). The internal solution contained (in mM): 150 Cs-aspartate, 2 MgCl2, 0.36 CaCl2, 1 EGTA, 4 MgATP, 0.3 NaGTP and 10 HEPES, pH = 7.20 with CsOH (calculated free [Ca^2+] = 100 nM using WebMaxChelator http://www.stanford.edu/~cpatton/maxc.html, assuming an ionic strength of 0.16). The standard external solution contained (in mM): 150 NaCl, 4 KCl, 2 CaCl2, 1 MgCl2, 10 HEPES and 10 D-glucose (pH = 7.40) with NaOH. Currents were elicited by a voltage ramp protocol consisting of a 50 ms step to −100 mV, followed by a 200 ms ramp to +100 mV and 10 ms at +100 mV. Voltage ramps were applied every 10 s from a holding potential of 0 mV. Results were expressed as means ± S.E.M.

CC(C)[C@@]12C[C@@H](O)[C@@](C)(O1)[C@@H]1CC[C@@H](C)[C@H]1[C@@H]2OC(=O)/C=C/c1ccccc1 [Englerin B]
induced current: did not induce current

Source: article PMC4476799, “Englerin A Agonizes the TRPC4/C5 Cation Channels to Inhibit Tumor Cell Line Proliferation” (PLoS ONE, 2015)
